According to PMC10653547, “Synergistic effect of two antimicrobial peptides, BP203 and MAP-0403 J-2 with conventional antibiotics against colistin-resistant Escherichia coli and Klebsiella pneumoniae clinical isolates” (PLOS ONE, 2023):

How the values were obtained:
[1] = tested on: colistin-resistant K. pneumoniae clinical isolates; assay: Disk diffusion antimicrobial susceptibility testing (CLSI); type: cell-based, Klebsiella pneumoniae; for Interpreted results of disk diffusion: key: R: resistant; I: intermediate; SDD: susceptible-dose dependent; S: sensitive
Protocol: (§1) Ten non-duplicate clinical isolates of colistin-resistant E. coli (EC) and ten non-duplicate clinical isolates of colistin-resistant K. pneumoniae (KP) were obtained from the bacterial repository of the Division of Infectious Diseases and Tropical Medicine, Department of Medicine, Faculty of Medicine Siriraj Hospital, Mahidol University. The species identification was conducted through standard biochemical tests. Antimicrobial susceptibility testing was carried out using the disk diffusion method following CLSI guidelines. Additionally, the assessment of colistin resistance in all isolates was performed by broth microdilution following CLSI recommendations. […] The amino acid sequences of BP203 and MAP-0403 J-2 were retrieved from previous studies. These peptides are BP100 and MAP-0403 analogs, respectively. […] Antibiotic disks and defibrinated sheep blood were obtained from Oxoid (Basingstoke, UK). All culture media were purchased from Becton Dickinson (Frankin Lakes, NJ, USA). All chemicals were obtained from Sigma-Aldrich (St. Louis, MO, USA).

[2] = tested on: colistin-resistant E. coli clinical isolates; assay: Checkerboard assay for synergy testing; type: cell-based, Escherichia coli
Protocol: (§2) The synergistic activities of various two-antimicrobial combinations against colistin-resistant E. coli and K. pneumoniae isolates were evaluated using the checkerboard assay, which was performed in 96-well plates. […] Two-fold serial dilutions of peptides and antibiotics were independently prepared in CAMHB. Afterward, a mixture of different concentrations of the antibiotics and peptides was added to the wells of the microplates. Antibiotics and peptides were also dispended alone in the first row and the first column, respectively. Bacterial inoculum was added to the 96-well plate to achieve a final concentration of 5 × 10^5 CFU/mL. Then, plates were incubated at 37 °C for 20–24 h. MICs were recorded as the minimum concentration of antimicrobial agents without bacterial growth. The interaction between the antimicrobials was determined by calculating the fractional inhibitory concentration index (FICI) according to the formula: FICI = FIC(drug A) + FIC(drug B), where FIC = the MIC of the drug when in the combination/MIC of drug tested individually.

[3] = tested on: colistin-resistant E. coli clinical isolates; assay: Disk diffusion antimicrobial susceptibility testing (CLSI); type: cell-based, Escherichia coli
Protocol: as §1

[4] = tested on: colistin-resistant K. pneumoniae clinical isolates; assay: Checkerboard assay for synergy testing; type: cell-based, Klebsiella pneumoniae
Protocol: as §2

[5] = isolate EC-01, checkerboard Chloramphenicol+BP203
[6] = isolate EC-01, checkerboard Chloramphenicol+MAP-0403 J-2
[7] = isolate EC-02, checkerboard Chloramphenicol+BP203
[8] = isolate EC-02, checkerboard Chloramphenicol+MAP-0403 J-2
[9] = isolate EC-03, checkerboard Chloramphenicol+BP203
[10] = isolate EC-03, checkerboard Chloramphenicol+MAP-0403 J-2
[11] = isolate EC-04, checkerboard Chloramphenicol+BP203
[12] = isolate EC-05, checkerboard Chloramphenicol+BP203
[13] = isolate EC-05, checkerboard Chloramphenicol+MAP-0403 J-2
[14] = isolate EC-06, checkerboard Chloramphenicol+BP203
[15] = isolate EC-06, checkerboard Chloramphenicol+MAP-0403 J-2
[16] = isolate EC-07, checkerboard Chloramphenicol+BP203
[17] = isolate EC-07, checkerboard Chloramphenicol+MAP-0403 J-2
[18] = isolate EC-08, checkerboard Chloramphenicol+BP203
[19] = isolate EC-08, checkerboard Chloramphenicol+MAP-0403 J-2
[20] = isolate EC-09, checkerboard Chloramphenicol+BP203
[21] = isolate EC-09, checkerboard Chloramphenicol+MAP-0403 J-2
[22] = isolate EC-10, checkerboard Chloramphenicol+BP203
[23] = isolate EC-10, checkerboard Chloramphenicol+MAP-0403 J-2
[24] = isolate KP-01, checkerboard Chloramphenicol+BP203
[25] = isolate KP-01, checkerboard Chloramphenicol+MAP-0403 J-2
[26] = isolate KP-02, checkerboard Chloramphenicol+BP203
[27] = isolate KP-02, checkerboard Chloramphenicol+MAP-0403 J-2
[28] = isolate KP-03, checkerboard Chloramphenicol+BP203
[29] = isolate KP-03, checkerboard Chloramphenicol+MAP-0403 J-2
[30] = isolate KP-04, checkerboard Chloramphenicol+BP203
[31] = isolate KP-04, checkerboard Chloramphenicol+MAP-0403 J-2
[32] = isolate KP-05, checkerboard Chloramphenicol+BP203
[33] = isolate KP-05, checkerboard Chloramphenicol+MAP-0403 J-2
[34] = isolate KP-06, checkerboard Chloramphenicol+BP203
[35] = isolate KP-06, checkerboard Chloramphenicol+MAP-0403 J-2
[36] = isolate KP-07, checkerboard Chloramphenicol+BP203
[37] = isolate KP-07, checkerboard Chloramphenicol+MAP-0403 J-2
[38] = isolate KP-08, checkerboard Chloramphenicol+BP203
[39] = isolate KP-08, checkerboard Chloramphenicol+MAP-0403 J-2
[40] = isolate KP-09, checkerboard Chloramphenicol+BP203
[41] = isolate KP-09, checkerboard Chloramphenicol+MAP-0403 J-2
[42] = isolate KP-10, checkerboard Chloramphenicol+BP203
[43] = isolate KP-10, checkerboard Chloramphenicol+MAP-0403 J-2

## O=C(N[C@H](CO)[C@H](O)c1ccc([N+](=O)[O-])cc1)C(Cl)Cl [C, chloramphenicol]
[1]; KP-01
  Interpreted results of disk diffusion: R
[1]; KP-02
  Interpreted results of disk diffusion: R
[1]; KP-03
  Interpreted results of disk diffusion: S
[1]; KP-04
  Interpreted results of disk diffusion: S
[1]; KP-05
  Interpreted results of disk diffusion: S
[1]; KP-06
  Interpreted results of disk diffusion: R
[1]; KP-07
  Interpreted results of disk diffusion: I
[1]; KP-08
  Interpreted results of disk diffusion: S
[1]; KP-09
  Interpreted results of disk diffusion: I
[1]; KP-10
  Interpreted results of disk diffusion: R
[1]; ten K. pneumoniae isolates, disk diffusion
  %Resistance: 40%
[2]; [5]
  MIC alone: 128 µg/mL
  MIC combination: 1 µg/mL
[2]; [6]
  MIC alone: 128 µg/mL
  MIC combination: 64 µg/mL
[2]; [7]
  MIC alone: 64 µg/mL
  MIC combination: 32 µg/mL
[2]; [8]
  MIC alone: 64 µg/mL
  MIC combination: 32 µg/mL
[2]; [9]
  MIC alone: 64 µg/mL
  MIC combination: 32 µg/mL
[2]; [10]
  MIC alone: 64 µg/mL
  MIC combination: 16 µg/mL
[2]; [11]
  MIC alone: 32 µg/mL
  MIC combination: 1 µg/mL
[2]; isolate EC-04, checkerboard Chloramphenicol+MAP-0403 J-2
  MIC combination: 128 µg/mL
[2]; [12]
  MIC alone: 64 µg/mL
  MIC combination: 32 µg/mL
[2]; [13]
  MIC alone: 64 µg/mL
  MIC combination: 32 µg/mL
[2]; [14]
  MIC alone: 16 µg/mL
  MIC combination: 4 µg/mL
[2]; [15]
  MIC alone: 8 µg/mL
  MIC combination: 4 µg/mL
[2]; [16]
  MIC alone: 256 µg/mL
  MIC combination: 64 µg/mL
[2]; [17]
  MIC alone: 64 µg/mL
  MIC combination: 32 µg/mL
[2]; [18]
  MIC alone: 64 µg/mL
  MIC combination: 32 µg/mL
[2]; [19]
  MIC alone: 64 µg/mL
  MIC combination: 16 µg/mL
[2]; [20]
  MIC alone: 256 µg/mL
  MIC combination: 64 µg/mL
[2]; [21]
  MIC alone: 256 µg/mL
  MIC combination: 64 µg/mL
[2]; [22]
  MIC alone: 256 µg/mL
  MIC combination: 32 µg/mL
[2]; [23]
  MIC alone: 256 µg/mL
  MIC combination: 64 µg/mL
[3]; EC-01
  Interpreted results of disk diffusion: R
[3]; EC-02
  Interpreted results of disk diffusion: R
[3]; EC-03
  Interpreted results of disk diffusion: R
[3]; EC-04
  Interpreted results of disk diffusion: R
[3]; EC-05
  Interpreted results of disk diffusion: R
[3]; EC-06
  Interpreted results of disk diffusion: S
[3]; EC-07
  Interpreted results of disk diffusion: R
[3]; EC-08
  Interpreted results of disk diffusion: R
[3]; EC-09
  Interpreted results of disk diffusion: R
[3]; EC-10
  Interpreted results of disk diffusion: R
[3]; ten E. coli isolates, disk diffusion
  %Resistance: 90%
[4]; [24]
  MIC alone: 512 µg/mL
  MIC combination: 128 µg/mL
[4]; [25]
  MIC alone: 1020 µg/mL
  MIC combination: 256 µg/mL
[4]; [26]
  MIC alone: 512 µg/mL
  MIC combination: 128 µg/mL
[4]; [27]
  MIC alone: 512 µg/mL
  MIC combination: 128 µg/mL
[4]; [28]
  MIC alone: 8 µg/mL
  MIC combination: 2 µg/mL
[4]; [29]
  MIC alone: 8 µg/mL
  MIC combination: 2 µg/mL
[4]; [30]
  MIC alone: 8 µg/mL
  MIC combination: 4 µg/mL
[4]; [31]
  MIC alone: 8 µg/mL
  MIC combination: 2 µg/mL
[4]; [32]
  MIC alone: 4 µg/mL
  MIC combination: 2 µg/mL
[4]; [33]
  MIC alone: 1020 µg/mL
  MIC combination: 256 µg/mL
[4]; [34]
  MIC alone: 512 µg/mL
  MIC combination: 128 µg/mL
[4]; [35]
  MIC alone: 32 µg/mL
  MIC combination: 8 µg/mL
[4]; [36]
  MIC alone: 512 µg/mL
  MIC combination: 128 µg/mL
[4]; [37]
  MIC alone: 8 µg/mL
  MIC combination: 4 µg/mL
[4]; [38]
  MIC alone: 4 µg/mL
  MIC combination: 1 µg/mL
[4]; [39]
  MIC alone: 8 µg/mL
  MIC combination: 4 µg/mL
[4]; [40]
  MIC alone: 32 µg/mL
  MIC combination: 4 µg/mL
[4]; [41]
  MIC alone: 32 µg/mL
  MIC combination: 16 µg/mL
[4]; [42]
  MIC alone: 64 µg/mL
  MIC combination: 8 µg/mL
[4]; [43]
  MIC alone: 64 µg/mL
  MIC combination: 4 µg/mL
